{"source": "patent US10603335B2", "about": "“Cancer treatment combination compositions, methods and uses” (Board of Supervisors of Louisiana State University and …, priority 2016, dated 2020)", "key": {"[1]": {"details": "four mice treated with LHRH-curcumin twice a week (20 mg/kg)", "protocol": "Samples of tumor tissue were weighed, then pulverized using a Bessman Tissue Pulverizer cooled 3-5 minutes in liquid nitrogen. Resultant powder was then placed in glass homogenizing chamber, mixed in PBS to 20% solution, and crushed to produce final homogenate. 200 Ml aliquot of homogenate was dispensed in Axygen 2 mL clear microtube (Part #: MCT-200-C-S). Each sample was extracted with 1 mL 10% methanol/90% ethyl acetate, vortexed, and spun 30 minutes at 14,000 rpm in a cold room centrifuge. The upper organic phase layer was then removed and placed in separate microcentrifuge tubes. The procedure was repeated, and pooled tumor extracts were concentrated using a Savant SpeedVac. Samples were reconstituted in 100 μL of 1 mM ascorbic acidic MeOH (pH 4.6), mixed in a sonication bath for 2 minutes, and 75 μL were injected on-column. Reverse-phase HPLC (Agilent 1100 series) with a Thermo ODS Hypersil 5 μm 250 mm×4.6 mm analytical column (Part #: 30105-252130) operated at ambient temperature was used to quantify curcumin in tumor. The mobile phase was 0.1% TFA (Mobile A) and acetonitrile with 0.08% TFA (Mobile B). […] With all analyses performed at 0.5 mL/min flow rate and fluorescence detection at Ex 420 nm and Em 524 nm, curcumin eluted at about 16.5 minutes."}, "[2]": {"tested_on": "XIAP, cIAP1 and cIAP2 mRNA in Panc-1 cells", "test": "Quantitative PCR of inhibitors of apoptosis, Panc-1", "assay_type": "cell-based", "details": "50 uM, 24 h post-treatment, relative to DMSO, GAPDH reference", "experimental": "mRNA levels of XIAP, c-IAP1 and c-IAP2 were determined by quantitative real-time PCR using the SYBR Green Real-Time PCR Master Mix form ThermoFisher. Thermal cycling was carried out using the CFX system from BioRad under the following conditions: 95° C. for 10 min and 40 cycles at 95° C. for 15 s and 55° C. for 60 s. mRNA expression for any given gene is represented as comparative to the DMSO-treated cells. GAPDH was used as the housekeeping gene of reference.\nGAPDH was used as a reference. Results presented in FIG. 12A (XIAP relative mRNA levels), FIG. 12B (cIAP1 relative mRNA levels), FIG. 12C (cIAP2 relative mRNA levels)."}, "[3]": {"tested_on": "LHRHR knock-down (KD) Panc-1 spheroides", "test": "3D spheroid growth, LHRHR knock-down (KD) Panc-1", "assay_type": "cell-based", "details": "LHRHR KD Panc-1; 30 μM"}, "physchem": {"test": "physchem", "details": "saline (PBS)"}, "PDAC PDXs tissue slices": {"tested_on": "PDAC PDXs tissue slices", "test": "Live Tissue Sensitivity Assay (LTSA), panel of PDAC PDXs", "assay_type": "cell-based", "details": "16 PDAC PDXs tested; single agent", "experimental": "(§1) Animal experiment protocol was reviewed and approved by The University of Texas MD Anderson Cancer Center (Houston, Tex.) institutional review board and in accordance with the Guidelines for the Care and Use of Laboratory Animals published by the National Institutes of Health. PDXs were grown from cryopreserved early passages of PDXs in nude mice as described in previous publications (Kim M P, et al, Nat Protoc 2009; 4(11): 1670-80). Briefly, tumor samples stored in CryoStor™ CS10 storage medium were recovered and cut into about 2 mm3 fragments, soaked in Matrigel, and implanted into the subcutaneous space of Balb/c nude mice (5 mice/PDX). Tumors were harvested when they reach 1.5 cm in diameter for generating tissue slices for drug testing with quadruplicates.\n(§2) About 100 tissue slices were produced from 1 tumorgraft with tissue slicer and arrayed in 96-well plates with previously established method (Roife D, et al, Clin Cancer Res 2016). […] Same volume of medium with 0.1% DMSO was added into control wells. After 72 hours, tissue viabilities were measured with PrestoBlue method. Viability inhibition will be calculated through normalization of viabilities of tissue slices treated with inhibitor against the viability of control (DMSO treated) slices. Inhibition of viability was further analyzed with t-test. […]"}, "[4]": {"tested_on": "non-target control (NT) Panc-1 spheroides", "test": "3D spheroid growth, non-target control (NT) Panc-1", "assay_type": "cell-based", "details": "30 μM"}, "PATX162 tissue slices": {"tested_on": "PATX162 tissue slices", "test": "Live Tissue Sensitivity Assay (LTSA), PATX162", "assay_type": "cell-based", "details": "single agent, 72 hours", "experimental": "as §1, §2"}, "PATX213 tissue slices": {"tested_on": "PATX213 tissue slices", "test": "Live Tissue Sensitivity Assay (LTSA), PATX213", "assay_type": "cell-based", "details": "single agent, 72 hours", "experimental": "as §1, §2"}}}
{"molecule": "COc1cc(/C=C/C(=O)CC(=O)/C=C/c2ccc(OC(=O)CCCC(=O)NCCCC[C@@H](NC(=O)[C@H](Cc3ccc(O)cc3)NC(=O)[C@H](CO)NC(=O)[C@H](Cc3c[nH]c4ccccc34)NC(=O)[C@H](Cc3c[nH]cn3)NC(=O)[C@@H]3CCC(=O)N3)C(=O)N[C@@H](CC(C)C)C(=O)N[C@@H](CCCNC(=N)N)C(=O)N3CCC[C@H]3C(=O)NCC(N)=O)c(OC)c2)ccc1O", "note": "[LHRH-curcumin, [DLys6]-LHRH-Curcumin]", "values": [{"measurement": "free curcumin in tumor tissue extract (HPLC peak at approximately 16.5 min)", "setting": "[1]", "value": "free curcumin present in the extract"}, {"measurement": "mRNA levels of XIAP, cIAP1 and c-IAP2", "setting": "[2]", "value": "down-regulated"}, {"measurement": "spheroids growth", "setting": "[3]", "value": "still has an effect on spheroids growth formed by LHRHR KD cells, its effect was inferior to that of curcumin alone"}, {"measurement": "solubility", "setting": "physchem", "value": "≥ 24", "unit": "mg/mL"}, {"measurement": "number of PDXs sensitive", "setting": "PDAC PDXs tissue slices", "value": 8}, {"measurement": "spheroids growth", "setting": "[4]", "value": "superior to that of LHRH or curcumin alone"}, {"measurement": "Sensitivity To LHRH-C", "setting": "PATX162 tissue slices", "value": "Sensitive (The tissue was defined as sensitive to the treatment if both p<0.05 and at least 30% of tissue slice viability on average was inhibited)"}, {"measurement": "Sensitivity To LHRH-C", "setting": "PATX213 tissue slices", "value": "Sensitive (The tissue was defined as sensitive to the treatment if both p<0.05 and at least 30% of tissue slice viability on average was inhibited)"}]}
